The record followed here is patent publication US20210163489A1, “PYRAZOLOPYRIMIDINE DERIVATIVES AND THE COMPOSITIONS AND METHODS OF TREATMENT REGARDING THE SAME” (NysnoBio Ireland DAC, priority 2016, published 2021).

This test has as its target T1, Parkin (Homo sapiens, UniProt O60260).
T1 construct: Enzyme 3: Parkin-His tagged 203 μM (10.5 mg/ml)
Briefly: Parkin pUB auto-ubiquitinylation assay (TR-FRET). In kind it is biochemical. The following applies: for EC50: activation of pUb activated Parkin, read-out: Auto-ubiq EC50 (μM) [Example 3]. An excerpt: A Parkin pUB Auto-ubiquitinylation Assay is used to evaluate a compound's potency to activate Parkin's ability to Auto-ubiquitinylate itself.
The principle of this assay is that the E3 Ligase Parkin catalyzes the transfer of Ubiquitin to target proteins, but also has the ability to auto-ubiquitinylate itself. The phospho-Ubiquition (pUb) added to the assay alters the Parkin to a state where small molecule activators can enable the Parkin to auto-ubiquitinylate though the E1-E2 cascade reaction. The use of a Eu cryptate Ubiquition and anti 6His-d2 that binds to the His tagged Parkin will give a signal when the Eu cryptate Ubiquition is auto-ubiquitinylate onto the Parkin which can be monitored by TR-FRET.
Similar to the Activity-based probe assay in Example 2, screening for activating compounds can be distinguished from the controls as follows:
100% activation signal=pUb activated Parkin+40 nM control activator in DMSO. 0% activation signal=pUb activated Parkin+DMSO only. Parkin activators can be identified by an increase of the 0% activation signal TR-FRET signal.
• Assay Plate: White 384 well plate (Corning 3572) • Enzyme 1: E1 (Ubiquitin-activating enzyme/UBE1 Boston Biochem E-305) • Enzyme 2: E2 (UBcH7/Ube2L3 Boston Biochem E2-640) • Enzyme 3: Parkin-His tagged 203 μM (10.5 mg/ml) • pUb: Phospho-Ubiquitin (S65) (Boston Biochem U-102) • Eu Cryptate Reagent: Ubiquitin Eu (CisBio 61UBIKLA) • DMSO: DMSO (Sigma-34869-2.5L) • Reaction Buffer: 50 mM HEPES, 50 mM NaCl, 1 mM MgCl2, 0.005% Tween 20, 0.1% • PF-127 (Fisher Scientific 50-310-494), pH 8.5 • Detection Buffer: 50 mM HEPES, 50 mM NaCl, 800 mM KF, 5 mM EDTA, 0.005% • Tween 20, 0.1% PF-127, pH 8.5 • Detection Reagent Z: 13.4 nM Anti-6His-d2 in detection buffer • d2 Reagent: Anti-6His-d2 (CisBio 61HISDLA)
Enzyme Reaction (15 min Pre-Incubation with Parkin, pUb and Activator Only) • Parkin: 196 nM • pUb: 196 nM • DMSO: 1% DMSO • E1: 5 nM • E2: 50 nM • Ubiquitin Eu: 8.8 nM • Reaction time: 120 minutes • Temperature: 22° C. • Total volume: 10 μl reaction
Take 10 μl of Enzyme Reaction above and add 10 μl detection Reagent Z under the following conditions:
Reaction time: 60 minutes
1) Load assay plate wells with 4.9 μl 400.0 nM Parkin, 400 nM pUb in reaction buffer by use of Eppendorf 12-channel pipette. 2) Deliver 0.1 μl 100× activator candidates in DMSO by use of Echo 555 compound dispenser. Highest 100× concentration=100 μm and then twofold dilutions. Add each compound and control in duplicate wells. 3) Spin 1000 rpm, 2 minutes, at room temp. 4) Incubate plate for 15 minutes at room temp. 5) Add 5 μl 10 nM E1, 100 nM E2, 17.6 nM Ubiquitin Eu and 2 mM ATP in Reaction Buffer by use of Eppendorf 12-channel pipette. 6) Spin 1000 rpm, 2 minutes, at room temp. 7) Incubate plate for 120 minutes at room temp. 8) Add 10 μl 13.4 nM anti his d2 in detection buffer by use of Eppendorf 12-channel pipette. 9) Spin 1000 rpm, 2 minutes, at room temp. 10) Incubate plate for 120 minutes at room temp. 11) Read plates on Perkin Elmer Envision instrument with the following parameters:
LANCE dual laser protocol loaded into the Envision® software
Top Mirror: LANCE/DELFIA Duel/Bias (Bar code 446) Emission Filter: APC 665 EM (Bar code 205) 2nd Emission Filter: Europium 615 EM (Bar code 203) Read […] (channel 1) and 615 nm (channel 2) wavelengths on Envision®
Data Analysis: The Data can be read in CSV files. There are two tables in those CSV files, which are the values of 655 nm (channel 1) and 615 nm (channel 2) wavelengths respectively. The data is converted to an HTRF Ratio=(Channel 1/Channel 2)*10,000
The average of all the 0 uM controls (DMSO only)=BKGD (Background—0% activation). Subtract BKGD from each HTRF Ratio value=HTRF-BKGD. The average of all the 100 uM control activator in DMSO controls=Max (100% activation). The following equation is then used to calculate % Activation for each well/candidate as follows: % Activation=(HTRF−BKGD/Max)*100.
XLFIT5 model 205 was applied for the data analysis. […]
(In general: Time-resolved FRET reads energy transfer from a long-lived donor to a nearby acceptor.)

The EC50 is the midpoint of the concentration-response curve.

T1 sequence (O60260 whole entry, other chains not shown): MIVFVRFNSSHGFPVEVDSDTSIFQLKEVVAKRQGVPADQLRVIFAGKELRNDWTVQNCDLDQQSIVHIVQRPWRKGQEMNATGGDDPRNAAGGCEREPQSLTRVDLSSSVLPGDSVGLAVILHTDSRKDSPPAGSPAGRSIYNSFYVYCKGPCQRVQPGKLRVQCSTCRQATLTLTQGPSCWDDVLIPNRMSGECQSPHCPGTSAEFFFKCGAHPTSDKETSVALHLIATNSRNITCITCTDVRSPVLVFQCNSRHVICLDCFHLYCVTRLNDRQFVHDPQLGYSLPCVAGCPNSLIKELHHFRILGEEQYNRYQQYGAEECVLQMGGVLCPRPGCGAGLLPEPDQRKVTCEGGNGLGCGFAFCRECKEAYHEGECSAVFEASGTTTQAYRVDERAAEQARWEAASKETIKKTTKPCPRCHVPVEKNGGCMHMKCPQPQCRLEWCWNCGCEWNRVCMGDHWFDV

For `Cc1nc2c(C3CCN(C)CC3)c(C)nn2c(O)c1Cc1ccccc1` [Compound O3], the EC50 is more than 40 µM.

`Cc1cc2nc(C)c(Cc3ccccc3)c(S)n2n1` [S]: the EC50 was more than 40 µM.

For `Cc1nc2c(-c3ccccc3)cnn2c(O)c1Cc1ccccc1` [Compound U, 6-benzyl-5-methyl-3-phenyl-pyrazolo[1,5-a]pyrimidin-7-ol], the EC50 came to 14.7 µM.

For `Cc1cc2nc(C)c(Cc3ccc(Cl)cc3)c(O)n2n1` [Compound P, 6-[(4-chlorophenyl)methyl]-2,5-dimethyl-pyrazolo[1,5-a]pyrimidin-7-ol], the EC50 was found to be 20.1 µM. On the same count and under the same terms, in the case of `Cc1nn2c(O)c(Cc3ccccc3)cnc2c1-c1ccccc1` [Compound V, 6-benzyl-2-methyl-3-phenyl-pyrazolo[1,5-a]pyrimidin-7-ol] it was more than 40 µM.

Consider `Cc1cc(S)n2ncc(-c3cc[nH]c(=O)c3)c2n1` [Compound A3], for which the EC50 was more than 40 µM. Still for that read-out and setting: in the case of `Cc1nc2c(-c3ccccc3)c(C)nn2c(O)c1Cc1ccccc1` [T] it was more than 40 µM.

Take `Cc1cc(C)c2c(n1)nn1c(S)cc(C)nc21` [Compound E]: the EC50 is 10.1 µM.

For `Cc1cc(S)n2ncc(-c3ccc(F)cc3)c2n1` [Compound L, 3-(4-fluorophenyl)-5-methylpyrazolo[1,5-a]pyrimidine-7-thiol], the “Parkin activity in an auto-ubiquitination assay” value was “increases” and the EC50 stood at 27.1 µM. As for `Cc1nc2c(-c3ccccn3)c(C)nn2c(O)c1Cc1ccccc1` [FF], the EC50 was more than 40 µM. Still for that read-out and setting: to `Cc1cc(O)n2nc(C)c(-c3ccc(Cl)cc3)c2n1` [M] belongs more than 40 µM; to `Cc1cc(O)n2ncc(-c3ccc(F)cc3)c2n1` [PP], more than 40 µM; to `Cc1cc(S)n2ncc(-c3ccccc3)c2n1` [Compound C], more than 40 µM. The same measure, in the same setting: to `COc1ccc(-c2cnn3c(S)cc(C)nc23)cc1` [SS] belongs more than 40 µM.
